Assay results: patent US20180008587A1, “THIOHYDANTOIN ANDROGEN RECEPTOR ANTAGONISTS FOR THE TREATMENT OF CANCER” (Jaressen Pharmaceutica NV, priority 2016, published 2018)
Where a chain is given by its changes, count along the chain named. Read-outs that look alike come from different tables or passages of the source.

What was measured:
Type in all cases: cell-based
[1] = biological target: T1, wild-type Androgen Receptor (AR-wt) (Homo sapiens, UniProt P10275); assay: LNCaP-AR-wt ANT reporter assay (ARE firefly luciferase, antagonist mode); conditions: for IC50: antagonist mode, 400 pM R-1881 challenge, −Log10(IC50 [Molar]), read-out: LNCaP-AR-wt ANT pIC50 (converted); for Emax: read-out: LNCaP-AR-wt ANT MAX % Inh
T1 construct: expressed in transfected cells; host or cells: LNCaP (LNCaP AR (cs))
T1 sequence (P10275 1-920): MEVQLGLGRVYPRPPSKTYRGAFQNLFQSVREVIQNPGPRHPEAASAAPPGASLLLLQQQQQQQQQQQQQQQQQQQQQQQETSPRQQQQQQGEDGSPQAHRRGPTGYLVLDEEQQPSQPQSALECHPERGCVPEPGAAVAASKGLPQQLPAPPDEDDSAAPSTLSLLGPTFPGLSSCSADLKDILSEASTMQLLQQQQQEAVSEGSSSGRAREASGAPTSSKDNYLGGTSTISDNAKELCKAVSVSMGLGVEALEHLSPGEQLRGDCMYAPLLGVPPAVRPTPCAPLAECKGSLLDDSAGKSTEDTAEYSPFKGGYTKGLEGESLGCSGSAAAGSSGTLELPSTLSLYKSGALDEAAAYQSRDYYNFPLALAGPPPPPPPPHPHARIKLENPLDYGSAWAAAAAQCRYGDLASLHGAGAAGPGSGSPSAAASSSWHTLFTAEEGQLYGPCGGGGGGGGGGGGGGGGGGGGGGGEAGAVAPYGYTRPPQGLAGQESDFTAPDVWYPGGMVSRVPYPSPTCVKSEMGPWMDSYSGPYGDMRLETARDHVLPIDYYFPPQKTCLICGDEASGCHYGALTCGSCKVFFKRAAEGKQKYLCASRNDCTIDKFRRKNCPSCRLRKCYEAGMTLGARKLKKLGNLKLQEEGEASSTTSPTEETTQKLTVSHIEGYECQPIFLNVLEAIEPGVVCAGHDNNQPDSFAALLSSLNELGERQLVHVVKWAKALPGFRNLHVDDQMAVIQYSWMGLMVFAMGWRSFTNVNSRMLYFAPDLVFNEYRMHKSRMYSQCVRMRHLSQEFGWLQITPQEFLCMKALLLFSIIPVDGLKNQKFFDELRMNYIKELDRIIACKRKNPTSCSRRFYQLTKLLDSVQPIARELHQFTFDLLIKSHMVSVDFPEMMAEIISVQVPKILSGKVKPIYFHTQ
Summary of the method: (§1)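 LNCaP cells stably expressing wild-type or F876L AR (puromycin-selected pooled populations) were cultured in charcoal-stripped serum medium. In antagonist mode, agonist challenge was 400 pM for wild-type and 600 pM for F876L.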

[2] = biological target: T1, wild-type Androgen Receptor (AR-wt); assay: LNCaP-AR-wt AG reporter assay (ARE firefly luciferase, agonist mode); conditions: for Emax: read-out: LNCaP-AR-wt AG MAX % Stim
Summary of the method: (§2)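 LNCaP stable pooled lines expressing ARE-firefly luciferase, in charcoal-stripped serum medium, were exposed to compounds; antagonist mode used agonist at 400 pM (WT) or 600 pM (F876L).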

[3] = biological target: T2, F876L mutant Androgen Receptor (AR-F876L) (Homo sapiens, UniProt P10275, F877L); assay: LNCaP-AR-F876L AG reporter assay (ARE firefly luciferase, agonist mode); conditions: for Emax: read-out: LNCaP-AR-F876L AG MAX % Stim
T2 construct: expressed in transfected cells; host or cells: LNCaP (LNCaP F876L)
T2 sequence (P10275 1-920 F877L): T1 sequence (P10275 1-920) with F877L
Summary of the method: as §2

[4] = biological target: T2, F876L mutant Androgen Receptor (AR-F876L); assay: LNCaP-AR-F876L ANT reporter assay (ARE firefly luciferase, antagonist mode); conditions: for Emax: read-out: LNCaP-AR-F876L ANT MAX % Inh; for IC50: read-out: LNCaP-AR-F876L ANT pIC50 (converted)
Summary of the method: as §1

[5] = maximum % inhibition of R1881 control response over tested concentration range
[6] = agonist mode, −Log10(EC50 [Molar]), read-out: LNCaP-AR-wt AG pEC50 (converted)
[7] = maximum % stimulation (agonist response) over tested concentration range
[8] = agonist mode, −Log10(EC50 [Molar]), read-out: LNCaP-AR-F876L AG pEC50 (converted)

Row | IC50 [1] | IC50 [4] | Emax [1, 5] | EC50 [2, 6] | Emax [2, 7] | EC50 [3, 8] | Emax [3, 7] | Emax [4, 5] | SMILES | Emax [1] | EC50 [2] | Emax [2] | EC50 [3] | Emax [3] | Emax [4]
1 | 87.1 nM | 112 nM | 102% | > 15100 nM | 0% | > 15100 nM | -0.1% | 99.7% | N#Cc1ncc(N2C(=O)C3(CCC3)N(c3ccc(C(=O)NCCc4ccncc4)c(F)c3)C2=S)cc1C(F)(F)F [Cpd 14, 4-[6-[6-cyano-5-(trifluoromethyl)-3-pyridyl]-5-oxo-7-thioxo-6,8-diazaspiro[3.4]octan-8-yl]-2-fluoro-N-[2-(4-pyridyl)ethyl]benzamide] |  |  |  |  |  | 
2 | 282 nM | 174 nM | 98.9% | > 15100 nM | 1.2% | > 15100 nM | 0.7% | 98.1% | CN(CCCNC(=O)c1ccc(N2C(=S)N(c3cnc(C#N)c(C(F)(F)F)c3)C(=O)C23CCC3)cc1F)C1CCCC1 [Cpd 64, 4-[6-[6-cyano-5-(trifluoromethyl)-3-pyridyl]-5-oxo-7-thioxo-6,8-diazaspiro[3.4]octan-8-yl]-N-[3-[cyclopentyl(methyl)amino]propyl]-2-fluoro-benzamide] |  |  |  |  |  | 
3 | 794 nM | 1050 nM | 96.1% | > 15100 nM | 0.2% | > 15100 nM | 1.5% | 92.3% | N#Cc1ncc(N2C(=O)C3(CCC3)N(c3ccc(C(=O)NCc4cccc(Cl)c4)c(F)c3)C2=S)cc1C(F)(F)F [Cpd 95, N-[(3-chlorophenyl)methyl]-4-[6-[6-cyano-5-(trifluoromethyl)-3-pyridyl]-5-oxo-7-thioxo-6,8-diazaspiro[3.4]octan-8-yl]-2-fluoro-benzamide] |  |  |  |  |  | 
4 | 112 nM | 158 nM | 97.7% | > 15100 nM | 2.2% | > 15100 nM | 3.9% | 96% | Cc1cc(N2C(=O)C3(CCC3)N(c3ccc(-c4cccnc4C)cc3)C2=S)cnc1C#N [Cpd 119, 3-methyl-5-[8-[4-(2-methyl-3-pyridyl)phenyl]-5-oxo-7-thioxo-6,8-diazaspiro[3.4]octan-6-yl]pyridine-2-carbonitrile] |  |  |  |  |  | 
5 | 363 nM | 282 nM | 98% | > 15100 nM |  | > 15100 nM |  | 98.2% | Cc1ccc(-c2ccc(N3C(=S)N(c4cnc(C#N)c(C)c4)C(=O)C34CCC4)cc2)o1 [Cpd 50, 3-methyl-5-[8-[4-(5-methyl-2-furyl)phenyl]-5-oxo-7-thioxo-6,8-diazaspiro[3.4]octan-6-yl]pyridine-2-carbonitrile] |  |  | 0.7% |  | 0.2% | 

Row | SMILES | IC50 [1] | IC50 [4] | Emax [1, 5] | EC50 [2, 6] | Emax [2, 7] | EC50 [3, 8] | Emax [3, 7] | Emax [4, 5] | Emax [1] | EC50 [2] | Emax [2] | EC50 [3] | Emax [3] | Emax [4]
6 | N#Cc1ncc(N2C(=O)C3(CCC3)N(c3ccc(OC4CCN(CCO)CC4)cc3)C2=S)cc1C(F)(F)F [Cpd 51, 5-[8-[4-[[1-(2-hydroxyethyl)-4-piperidyl]oxy]phenyl]-5-oxo-7-thioxo-6,8-diazaspiro[3.4]octan-6-yl]-3-(trifluoromethyl)pyridine-2-carbonitrile] | 389 nM | 200 nM |  |  |  |  |  |  | 99% | > 15100 nM | 0.8% | > 15100 nM | 0.2% | 101%
7 | N#Cc1ncc(N2C(=O)C3(CCC3)N(c3ccc(C(=O)NCc4ccccc4Cl)c(F)c3)C2=S)cc1C(F)(F)F [Cpd 31, N-[(2-chlorophenyl)methyl]-4-[6-[6-cyano-5-(trifluoromethyl)-3-pyridyl]-5-oxo-7-thioxo-6,8-diazaspiro[3.4]octan-8-yl]-2-fluoro-benzamide] | 2240 nM | 2240 nM |  |  |  |  |  |  | 98.6% | > 15100 nM | 0.2% | > 15100 nM | 0.3% | 91%
8 | N#Cc1ncc(N2C(=O)C3(CCC3)N(c3ccc(C(=O)NCc4cccs4)c(F)c3)C2=S)cc1C(F)(F)F [Cpd 59, 4-[6-[6-cyano-5-(trifluoromethyl)-3-pyridyl]-5-oxo-7-thioxo-6,8-diazaspiro[3.4]octan-8-yl]-2-fluoro-N-(2-thienylmethyl)benzamide] | 1290 nM | 676 nM |  |  |  |  |  |  | 102% | > 15100 nM | 1.5% | > 15100 nM | 0.7% | 100%
